Assay results as given in the supplement of paper PMC10627819.

Experiments:
[1] = test system: B. subtilis 168; experiment: fitness (endpoint OD595 vs no drug) (fraction); higher = more growth
Procedure, shortened: (§1)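 Each well of a 384-well plate received 30 µl of culture at OD595 0.01, or 55 µl for S. pneumoniae. TSB, LB Lennox or CY served as media at 37 °C. OD595 was taken every 30 min for 14 h and corrected by subtracting the first reading. Fitness is the optical density at stationary-phase entry divided by the robust mean of no-drug controls, capped at 1.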

[2] = test system: S. aureus DSM 20231; experiment: as above
Procedure, shortened: as §1

[3] = test system: S. aureus Newman; experiment: as above
Procedure, shortened: as §1

[4] = test system: S. pneumoniae D39V; experiment: as above
Procedure, shortened: as §1

[5] = test system: B. subtilis 168; experiment: Bliss interaction score (quartile over a dose matrix) (fitness difference); higher = more antagonism (negative = synergy)
Procedure, shortened: (§2)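 The Bliss score takes observed fitness and subtracts the expected fitness, calculated as a product of single-drug fitness values. Those single-drug values were inferred from the combination data. Fitness is OD595 at entry into stationary phase divided by the plate's robust no-drug mean, capped at 1, and the score is summarised by quartiles across technical, biological and donor/recipient replicates.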

[6] = test system: S. aureus DSM 20231; experiment: as above
Procedure, shortened: as §2

[7] = test system: S. aureus Newman; experiment: as above
Procedure, shortened: as §2

[8] = test system: S. pneumoniae D39V; experiment: as above
Procedure, shortened: as §2
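Throughout, for Bliss interaction score (quartile over a dose matrix): first quartile when negative (synergy) and third quartile when positive (antagonism).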

CCCCCCCCCC(=O)N[C@@H](Cc1c[nH]c2ccccc12)C(=O)N[C@H](CC(N)=O)C(=O)N[C@@H](CC(=O)O)C(=O)N[C@@H]1C(=O)NCC(=O)N[C@@H](CCCN)C(=O)N[C@@H](CC(=O)O)C(=O)N[C@H](C)C(=O)N[C@@H](CC(=O)O)C(=O)NCC(=O)N[C@H](CO)C(=O)N[C@@H]([C@H](C)CC(=O)O)C(=O)N[C@@H](CC(=O)c2ccccc2N)C(=O)O[C@@H]1C [Daptomycin] + C[n+]1ccc(-c2cc[n+](C)cc2)cc1 [Paraquat]
fitness
Conditions	first compound 0.125 µg/mL	first compound 0.25 µg/mL	first compound 0.5 µg/mL	first compound 1 µg/mL	first compound 2 µg/mL	first compound 4 µg/mL
[1], partner 1.25 µg/mL	0.901	0.93	0.85	–	–	–
[1], partner 2.5 µg/mL	0.9	0.901	0.902	–	–	–
[1], partner 5 µg/mL	0.894	0.857	0.81	–	–	–
[2], partner 1.25 µg/mL	0.906	0.9	0.942	0.932	0.883	–
[2], partner 2.5 µg/mL	0.898	0.923	0.991	0.968	0.995	–
[2], partner 5 µg/mL	0.93	0.927	0.924	1	0.907	–
[3], partner 1.25 µg/mL	≥ 1	≥ 1	0.995	–	–	–
[3], partner 2.5 µg/mL	≥ 1	≥ 1	0.977	–	–	–
[3], partner 5 µg/mL	0.974	0.945	0.9	–	–	–
[4], partner 1.5 µg/mL	–	–	–	0.996	0.987	0.936
[4], partner 3 µg/mL	–	–	–	0.973	0.955	0.937
[4], partner 6 µg/mL	–	–	–	0.974	0.922	0.872

[1], first compound 1 µg/mL, one replicate
Conditions	fitness
partner 1.25 µg/mL	0.743
partner 2.5 µg/mL	0.722
partner 5 µg/mL	0.653

Conditions	Bliss interaction score
[5]	0.0589
[6]	-0.0451
[7]	0.0526
[8]	0.0711

CCN(CC)CCOC(=O)c1ccc(N)cc1 [Procaine] + COc1ccc(C[C@H](N)C(=O)N[C@H]2[C@@H](O)[C@H](n3cnc4c(N(C)C)ncnc43)O[C@@H]2CO)cc1 [Puromycin]
fitness
Conditions	first compound 85.5 µg/mL	first compound 171 µg/mL	first compound 342 µg/mL
[1], partner 0.39 µg/mL	0.931	0.964	0.899
[1], partner 0.78 µg/mL	0.935	0.913	0.896
[1], partner 1.56 µg/mL	0.934	0.967	0.958
[2], partner 0.39 µg/mL	0.996	≥ 1	0.916
[2], partner 0.78 µg/mL	≥ 1	≥ 1	≥ 1
[2], partner 1.56 µg/mL	0.994	≥ 1	≥ 1
[3], partner 0.39 µg/mL	≥ 1	≥ 1	≥ 1
[3], partner 0.78 µg/mL	≥ 1	0.977	0.936
[3], partner 1.56 µg/mL	≥ 1	≥ 1	≥ 1
[4], partner 1 µg/mL	0.974	0.951	0.958
[4], partner 2 µg/mL	0.948	0.966	0.955
[4], partner 4 µg/mL	0.789	0.831	0.814

fitness, [2], one replicate
Conditions	first compound 85.5 µg/mL	first compound 171 µg/mL	first compound 342 µg/mL
partner 3.12 µg/mL	0.86	0.879	≥ 1
partner 6.24 µg/mL	0.592	0.646	0.618

Conditions	Bliss interaction score
[5]	0.0785
[6]	0.047
[7]	0.063
[8]	0.0736

CCCCCCCCCC(=O)N[C@@H](Cc1c[nH]c2ccccc12)C(=O)N[C@H](CC(N)=O)C(=O)N[C@@H](CC(=O)O)C(=O)N[C@@H]1C(=O)NCC(=O)N[C@@H](CCCN)C(=O)N[C@@H](CC(=O)O)C(=O)N[C@H](C)C(=O)N[C@@H](CC(=O)O)C(=O)NCC(=O)N[C@H](CO)C(=O)N[C@@H]([C@H](C)CC(=O)O)C(=O)N[C@@H](CC(=O)c2ccccc2N)C(=O)O[C@@H]1C [Daptomycin] + O=C(O[C@@H]1Cc2c(O)cc(O)cc2O[C@@H]1c1cc(O)c(O)c(O)c1)c1cc(O)c(O)c(O)c1 [EGCG]
fitness
Conditions	partner 6.25 µg/mL	partner 12.5 µg/mL	partner 25 µg/mL	partner 50 µg/mL
[1], first compound 0.125 µg/mL	0.906	–	0.305	–
[1], first compound 0.25 µg/mL	0.895	0.719	–	–
[1], first compound 0.5 µg/mL	0.838	0.598	–	–
[2], first compound 0.5 µg/mL	–	0.814	0.778	0.808
[2], first compound 1 µg/mL	–	0.788	0.721	0.699
[2], first compound 2 µg/mL	–	0.728	0.736	–
[3], first compound 0.125 µg/mL	–	0.817	0.79	0.742
[3], first compound 0.25 µg/mL	–	0.828	0.815	0.754
[3], first compound 0.5 µg/mL	–	0.861	0.843	0.742
[4], first compound 1 µg/mL	–	0.909	0.95	–
[4], first compound 2 µg/mL	–	0.921	0.906	0.971
[4], first compound 4 µg/mL	–	–	–	0.832

[1], first compound 1 µg/mL, one replicate
Conditions	fitness
partner 6.25 µg/mL	0.665
partner 12.5 µg/mL	0.399
partner 25 µg/mL	0.0311

Conditions	Bliss interaction score
[5]	-0.0882
[6]	-0.0959
[7]	0.0602
[8]	0.0768

CC1(C)S[C@@H]2[C@H](NC(=O)[C@H](N)c3ccc(O)cc3)C(=O)N2[C@H]1C(=O)O [Amoxicillin] + CN[C@H](CC(C)C)C(=O)N[C@H]1C(=O)N[C@@H](CC(N)=O)C(=O)N[C@H]2C(=O)N[C@H]3C(=O)N[C@H](C(=O)N[C@H](C(=O)O)c4cc(O)cc(O)c4-c4cc3ccc4O)[C@H](O)c3ccc(c(Cl)c3)Oc3cc2cc(c3O[C@@H]2O[C@H](CO)[C@@H](O)[C@H](O)[C@H]2O[C@H]2C[C@](C)(N)[C@H](O)[C@H](C)O2)Oc2ccc(cc2Cl)[C@H]1O [Vancomycin]
Conditions	fitness
[2], first compound 0.0625 µg/mL, partner 0.1875 µg/mL	0.605
[2], first compound 0.0625 µg/mL, partner 0.375 µg/mL	0.667
[2], first compound 0.125 µg/mL, partner 0.1875 µg/mL	0.397
[2], first compound 0.125 µg/mL, partner 0.375 µg/mL	0.452
[2], first compound 0.25 µg/mL, partner 0.1875 µg/mL	0.125
[2], first compound 0.25 µg/mL, partner 0.375 µg/mL	0.15
[2], first compound 0.25 µg/mL, partner 0.75 µg/mL	0.176
[2], first compound 0.5 µg/mL, partner 0.1875 µg/mL	0.0104
[2], first compound 0.5 µg/mL, partner 0.375 µg/mL	0.0135
[2], first compound 0.5 µg/mL, partner 0.75 µg/mL	0.0165
[3], first compound 0.0625 µg/mL, partner 0.1875 µg/mL	0.916
[3], first compound 0.0625 µg/mL, partner 0.375 µg/mL	0.914
[3], first compound 0.0625 µg/mL, partner 0.75 µg/mL	0.879
[3], first compound 0.125 µg/mL, partner 0.1875 µg/mL	0.887
[3], first compound 0.125 µg/mL, partner 0.375 µg/mL	0.875
[3], first compound 0.125 µg/mL, partner 0.75 µg/mL	0.877
[3], first compound 0.25 µg/mL, partner 0.1875 µg/mL	0.89
[3], first compound 0.25 µg/mL, partner 0.375 µg/mL	0.866
[3], first compound 0.25 µg/mL, partner 0.75 µg/mL	0.811
[4], first compound 0.0008 µg/mL, partner 0.03125 µg/mL	0.988
[4], first compound 0.0008 µg/mL, partner 0.0625 µg/mL	0.871
[4], first compound 0.0008 µg/mL, partner 0.125 µg/mL	0.894
[4], first compound 0.0015 µg/mL, partner 0.03125 µg/mL	0.977
[4], first compound 0.0015 µg/mL, partner 0.0625 µg/mL	0.852
[4], first compound 0.0015 µg/mL, partner 0.125 µg/mL	0.913
[4], first compound 0.0015 µg/mL, partner 0.25 µg/mL	0.869
[4], first compound 0.0015 µg/mL, partner 0.5 µg/mL	0.299
[4], first compound 0.003 µg/mL, partner 0.03125 µg/mL	0.861
[4], first compound 0.003 µg/mL, partner 0.0625 µg/mL	0.762
[4], first compound 0.003 µg/mL, partner 0.125 µg/mL	0.783
[4], first compound 0.003 µg/mL, partner 0.25 µg/mL	0.742
[4], first compound 0.003 µg/mL, partner 0.5 µg/mL	0.289

fitness, [4], one replicate
Conditions	partner 0.125 µg/mL	partner 0.25 µg/mL	partner 0.5 µg/mL
first compound 0.0008 µg/mL	–	0.928	0.33
first compound 0.006 µg/mL	0.234	0.13	0.0321

Conditions	Bliss interaction score
[5]	-0.0442
[6]	0.074
[7]	0.0681
[8]	0.101
